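96-well plates; 48 h exposure; 5 concentrations. Endpoints by linear interpolation between flanking doses. Not reached: highest tested concentration assigned. GI50: concentration for 50% inhibition of growth.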 Active and inactive are the calls of the source. No stated cut-off is given here; in the data, active = GI50 up to about 1.1 µM and inactive = higher.
What was measured:
Experiment in all cases: growth of human tumour cells (NCI), 48 h
MOLT-4 = system: MOLT-4
UO-31 = system: UO-31
CCRF-CEM = system: CCRF-CEM
SR = system: SR
Malme-3M = system: Malme-3M
NCI-H460 = system: NCI-H460
M19-MEL = system: M19-MEL
OVCAR-8 = system: OVCAR-8
LXFL 529 = system: LXFL 529
U-251 = system: U-251
NCI-H522 = system: NCI-H522
NCI-H23 = system: NCI-H23
SF-295 = system: SF-295
EKVX = system: EKVX
KM12 = system: KM12

Measured: GI50

CC1(C)Oc2ccccc2[N+]([O-])=C1c1ccccc1
inactive: MOLT-4 > 100 µM | UO-31 > 100 µM | CCRF-CEM > 100 µM | SR > 100 µM | Malme-3M > 100 µM | NCI-H460 > 100 µM | M19-MEL > 100 µM | OVCAR-8 > 100 µM | LXFL 529 > 100 µM | U-251 > 100 µM | NCI-H522 > 100 µM | NCI-H23 > 100 µM | SF-295 > 100 µM

CC1C[C@]2(C[C@@H](C)C(=O)O2)O[C@@H]2CC3(C)[C@@H]4CCC5C(C)(C)OC(=O)C[C@H]6OO[C@]4(CC[C@]3(C)C12)CC56O (stereo partly specified)
inactive: UO-31 > 100 µM | SR > 100 µM | Malme-3M > 100 µM | NCI-H460 > 100 µM | OVCAR-8 > 100 µM | LXFL 529 > 100 µM | U-251 > 100 µM | NCI-H522 > 100 µM | NCI-H23 > 100 µM | SF-295 > 100 µM

Cc1nc(Nc2ccc(Cl)cc2)sc1C(=O)Nc1cccc2c(=O)[nH][nH]c(=O)c12
inactive: EKVX 8.34 µM | MOLT-4 19 µM | UO-31 31.8 µM | CCRF-CEM 16.9 µM | SR 21 µM | Malme-3M 36 µM | NCI-H460 25.8 µM | M19-MEL 30.3 µM | OVCAR-8 > 100 µM | LXFL 529 13.1 µM | U-251 34.3 µM | NCI-H522 23.5 µM | KM12 51.8 µM | NCI-H23 16.4 µM | SF-295 24.7 µM

CC1=C(C(=O)Nc2ccc([N+](=O)[O-])cc2)C(c2ccccc2F)C(C(=O)Nc2ccc([N+](=O)[O-])cc2)=C(C)N1
inactive: EKVX 8.81 µM | MOLT-4 3.61 µM | UO-31 6.61 µM | CCRF-CEM 7 µM | Malme-3M 13.7 µM | NCI-H460 13.6 µM | M19-MEL 14.2 µM | OVCAR-8 21.7 µM | LXFL 529 6.92 µM | U-251 14.9 µM | NCI-H522 8.2 µM | KM12 9.14 µM | NCI-H23 11.2 µM | SF-295 20.3 µM

O=C1OC(=O)c2c1c(-c1ccccc1)nc1ccccc21
inactive: EKVX > 100 µM | MOLT-4 > 100 µM | UO-31 > 100 µM | CCRF-CEM > 100 µM | Malme-3M > 100 µM | NCI-H460 > 100 µM | M19-MEL > 100 µM | OVCAR-8 > 100 µM | LXFL 529 > 100 µM | U-251 > 100 µM | NCI-H522 > 100 µM | KM12 > 100 µM | NCI-H23 > 100 µM | SF-295 > 100 µM

CC(=O)C1C(=O)C(=O)N(c2ccccc2C(C)C)C1=O (stereo unspecified)
inactive: EKVX > 100 µM | MOLT-4 > 100 µM | UO-31 > 100 µM | CCRF-CEM > 100 µM | Malme-3M > 100 µM | NCI-H460 > 100 µM | M19-MEL > 100 µM | OVCAR-8 > 100 µM | LXFL 529 > 100 µM | U-251 > 100 µM | NCI-H522 > 100 µM | KM12 > 100 µM | NCI-H23 > 100 µM | SF-295 > 100 µM

CC(C1=CC=C2[C@@H]3CCC4CC(N(C)C)CC[C@]4(C)C3CC[C@]12C)N(C)C=O (stereo partly specified)
inactive: MOLT-4 > 100 µM | UO-31 > 100 µM | CCRF-CEM > 100 µM | Malme-3M > 100 µM | NCI-H460 > 10 µM | M19-MEL > 100 µM | OVCAR-8 > 100 µM | LXFL 529 > 100 µM | U-251 > 100 µM | NCI-H522 > 100 µM | KM12 > 100 µM | NCI-H23 > 100 µM | SF-295 > 100 µM

COc1ccc(O)cc1 [MEQUINOL]
inactive: EKVX > 100 µM | MOLT-4 74.3 µM | UO-31 57.4 µM | CCRF-CEM 60.3 µM | SR 89.7 µM | Malme-3M 77.6 µM | NCI-H460 97.1 µM | M19-MEL 95.3 µM | OVCAR-8 55.7 µM | LXFL 529 33.6 µM | U-251 > 100 µM | KM12 42.7 µM | NCI-H23 > 100 µM

CCC12CCCN(Cc3ccccc3)C1c1c(n(C)c3ccccc13)[C@H](C(=O)OC)C2 (stereo partly specified)
inactive: EKVX > 239 µM | MOLT-4 > 239 µM | CCRF-CEM > 239 µM | SR > 239 µM | Malme-3M > 239 µM | NCI-H460 > 239 µM | M19-MEL 130 µM | OVCAR-8 > 239 µM | LXFL 529 > 239 µM | U-251 > 239 µM | NCI-H522 122 µM | KM12 > 239 µM | NCI-H23 > 239 µM | SF-295 > 239 µM

COC(=O)C(=Cc1cc(OC)c(OC)c(OC)c1-c1cc2c(cc1C1(C)OCCS1)OCO2)C(=O)OC (stereo unspecified)
inactive: EKVX 35.6 µM | MOLT-4 24 µM | CCRF-CEM 33 µM | SR 22.2 µM | Malme-3M 37.3 µM | NCI-H460 26.6 µM | M19-MEL 23 µM | OVCAR-8 31.6 µM | LXFL 529 24.1 µM | U-251 45.5 µM | NCI-H522 15.8 µM | KM12 19.1 µM | NCI-H23 19.8 µM | SF-295 31.6 µM

CCOP(=O)(OCC)C1=NC=CC=CC1n1c(-c2ccccc2)nn(CC)c1=O (stereo unspecified)
inactive: EKVX > 100 µM | MOLT-4 > 100 µM | CCRF-CEM > 100 µM | SR > 100 µM | Malme-3M > 100 µM | NCI-H460 > 100 µM | M19-MEL > 100 µM | OVCAR-8 > 100 µM | LXFL 529 > 100 µM | U-251 > 100 µM | NCI-H522 > 100 µM | KM12 > 100 µM | NCI-H23 > 100 µM | SF-295 > 100 µM

CCC1CN2CCc3cc(OC)c(OC)cc3C2CC1CC1c2cc(OC)c(OC)cc2CCN1C(=O)CNC(=O)OC(C)(C)C (stereo unspecified)
inactive: EKVX 5.05 µM | MOLT-4 3.44 µM | UO-31 24.4 µM | CCRF-CEM 3.34 µM | Malme-3M 19.5 µM | NCI-H460 6.49 µM | M19-MEL 16.3 µM | OVCAR-8 5.64 µM | LXFL 529 10.9 µM | U-251 5.51 µM | KM12 3.31 µM | NCI-H23 21.4 µM | SF-295 3.9 µM

COC(=O)/C(C#N)=C1\CCC(OC)N1 (stereo unspecified)
inactive: EKVX > 100 µM | MOLT-4 > 100 µM | UO-31 > 100 µM | CCRF-CEM > 100 µM | Malme-3M > 100 µM | NCI-H460 > 100 µM | M19-MEL > 100 µM | OVCAR-8 > 100 µM | LXFL 529 > 100 µM | U-251 > 100 µM | NCI-H522 > 100 µM | KM12 > 100 µM | NCI-H23 > 100 µM | SF-295 > 100 µM

Cc1cccc2c1Sc1ccccc1C2NC(=O)CCN(C)C (stereo unspecified)
inactive: EKVX > 100 µM | MOLT-4 > 100 µM | UO-31 > 100 µM | CCRF-CEM > 100 µM | SR > 100 µM | NCI-H460 > 100 µM | M19-MEL > 100 µM | OVCAR-8 > 100 µM | LXFL 529 > 100 µM | U-251 > 100 µM | NCI-H23 > 100 µM
